The text below walks through data of patent US20250099420A1, “SMALL MOLECULE MODULATORS OF GPR139 COMPLEX” (University of Florida Research Foundation, Incorporated, priority 2022, published 2025).

Read-outs that look alike come from different tables or passages of the source.

In one data set the target is T1, GPR139 (Homo sapiens, UniProt Q6DWJ6).
T1 sequence (Q6DWJ6 1-353): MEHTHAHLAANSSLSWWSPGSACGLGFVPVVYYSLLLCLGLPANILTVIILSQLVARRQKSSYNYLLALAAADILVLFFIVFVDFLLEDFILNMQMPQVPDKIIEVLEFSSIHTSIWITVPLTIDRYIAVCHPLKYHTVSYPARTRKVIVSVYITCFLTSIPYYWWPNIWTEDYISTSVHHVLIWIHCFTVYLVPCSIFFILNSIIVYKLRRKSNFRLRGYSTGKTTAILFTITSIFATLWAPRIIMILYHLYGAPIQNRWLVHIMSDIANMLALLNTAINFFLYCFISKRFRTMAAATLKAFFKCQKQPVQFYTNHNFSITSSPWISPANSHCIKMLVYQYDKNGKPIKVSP
In words: GPR139 Agonist titration / agonist counterscreen assay (calcium detection, HEK-GPR139 cells). Further details: expressed in transfected cells; host or cells: HEK Aequorin cells, Maxcyte transient transfection. The note with it: GPR139 Agonist Activity; for EC50: read-out: EC50; for Averaged Max % Response (±St. Dev.): activity relative to known control. In kind it is cell-based. How it is done: GPR activity was assessed using a calcium detection assay. […] Negative control samples were treated with DMSO. […] Intracellular calcium was measured using Calcium 5.
(In general: The purpose of a counterscreen is to sort out artefacts and off-target activity.)

In a further data set the test system is parental HEK cells. The data set can be described thus: HEK parental Agonist Counterscreen Assay (non-transfected cells). Conditions: for Averaged Max % Response (±St. Dev.): activity relative to known control. In kind it is cell-based. The text has this: The high control for the agonist counterscreen was Forskolin not acetylcholine.
The mark [1] stands for this setting: Homo sapiens, HEK293, HEK Agonist Activity section of Table 4 (parental HEK counterscreen).
[2] abbreviates: values printed in E-notation without unit.
Setting [3] is: HEK Agonist Activity section of Table 4 (parental HEK counterscreen).
[4] abbreviates: Homo sapiens, HEK293, HEK Agonist Activity, parental non-transfected HEK cells.

By EC50 is commonly meant the concentration at which the effect is half-maximal. Take `CSc1ccc(CCNC(=O)Cn2ncc3c(=O)oc4ccccc4c32)cc1` [SR-01000105999]: at GPR139, the “Efficiency Ligand” value stood at 0.32, the “Hill Slope” value is listed as 1.37, the “Lipophilic Efficiency (logD)” value is given as 3.64 and the “Lipophilic Efficiency (logP)” value is listed as 3.64. In addition, the “Averaged Max % Response (±St. Dev.)” value at GPR139 was found to be 100.11 ± 8.55%. Moreover, the EC50 at GPR139 (HEK-GPR139 cells) was found to be 355 nM. Besides, in the data set with parental HEK cells (HEK Agonist Activity section), the “Lipophilic Efficiency (logD)” value is 2.04, the “Lipophilic Efficiency (logP)” value was 2.04 and the “Averaged Max % Response (±St. Dev.)” value is given as 4.15 ± 6.01%. In addition, the EC50 in the data set with parental HEK cells (setting [1]) is more than 14100 nM.

Turning to `Cc1ccc2c(c1)CCCN2CC(=O)N(C)c1c(N)n(Cc2ccccc2)c(=O)[nH]c1=O` [SR-01000070509], the entries for the “Averaged Max % Response (±St. Dev.)” value on GPR139 and in the data set with parental HEK cells (HEK Agonist Activity section) were 96.94 ± 14.18% and 15.75 ± 7.96%, respectively. Also, the “Lipophilic Efficiency (logD)” value at GPR139 (based on logD) turned out to be 4.29; with parental HEK cells (HEK Agonist Activity section), 2.32. Also, the figures for the “Lipophilic Efficiency (logP)” value on GPR139 (based on logP) and in the data set on parental HEK cells (HEK Agonist Activity section) were 4.29 and 2.31, respectively. Besides, the “Hill Slope” value on GPR139 (fitted dose-response curve) was 0.89. Moreover, the “Efficiency Ligand” value on GPR139 (ligand efficiency) stood at 0.30. The values for the EC50 on GPR139 (setting [2]) and with parental HEK cells (setting [3]) were 153 nM and more than 14300 nM, respectively.

Turning to `Cc1ccc(NC(=O)Cn2ncc3c2-c2ccccc2OC3)cc1F` [SR-01000135068], the “Averaged Max % Response (±St. Dev.)” value at GPR139 was 114.56 ± 16.65%; in the data set with parental HEK cells (HEK Agonist Activity section), −6.35 ± 1.52%. For the same molecule, the “Lipophilic Efficiency (logD)” value turned out to be 4.08 at GPR139 (based on logD) and 1.72 in the data set with parental HEK cells (HEK Agonist Activity section). In addition, the “Lipophilic Efficiency (logP)” value on GPR139 (based on logP) was 4.08; with parental HEK cells (HEK Agonist Activity section), 1.72. Further, the “Hill Slope” value on GPR139 (fitted dose-response curve) was determined as 0.14. Further, the “Efficiency Ligand” value at GPR139 (ligand efficiency) was 0.40. The EC50 on GPR139 (setting [2]) is 61.5 nM; in the data set with parental HEK cells (setting [1]), more than 14100 nM.

On to `CCN(CCCNC(=O)CN1CCC(Cc2ccccc2C)C1=O)c1cccc(C)c1` (centres unmarked) [SR-01000150393], for which the “Averaged Max % Response (±St. Dev.)” value is recorded as 97.57 ± 16.88% on GPR139 and 10.10 ± 9.60% with parental HEK cells (HEK Agonist Activity section). Also, the “Lipophilic Efficiency (logD)” value on GPR139 (based on logD) stood at 3.55; with parental HEK cells (HEK Agonist Activity section), 1.45. The results for the “Lipophilic Efficiency (logP)” value at GPR139 (based on logP) and in the data set on parental HEK cells (HEK Agonist Activity section) were 3.54 and 1.43, respectively. The “Hill Slope” value on GPR139 (fitted dose-response curve) stood at 1.18. Besides, the “Efficiency Ligand” value on GPR139 (ligand efficiency) turned out to be 0.31. Further, the EC50 with parental HEK cells (setting [1]) was more than 14100 nM.

`CC(NC(=O)Cn1ncc2c(Cl)cccc21)c1ccc2c(c1)OCCO2` (centres unmarked) [SR-01000155068]: the “Averaged Max % Response (±St. Dev.)” value is listed as 127.51 ± 13.72% at GPR139 and −2.13 ± 1.88% in the data set with parental HEK cells (HEK Agonist Activity). The results for the “Lipophilic Efficiency (logD)” value on GPR139 (based on logD) and in the data set with parental HEK cells (HEK Agonist Activity) were 5.00 and 2.28, respectively. Further, the results for the “Lipophilic Efficiency (logP)” value on GPR139 (based on logP) and with parental HEK cells (HEK Agonist Activity) were 5.00 and 2.28, respectively. Also, the “Hill Slope” value on GPR139 (fitted dose-response curve) is 0.58. Besides, at GPR139 (ligand efficiency), the “Efficiency Ligand” value stood at 0.41. Also, the EC50 on GPR139 (setting [2]) is 26.7 nM; in the data set on parental HEK cells (setting [4]), more than 14100 nM.

On to `O=C(NCCc1ccc(Cl)cc1)c1nnc(Cc2ccc(F)cc2)o1` [SR-01000125346], for which, on GPR139, the “Efficiency Ligand” value amounted to 0.34, the “Hill Slope” value is given as 1.86, the “Lipophilic Efficiency (logD)” value was 2.95 and the “Lipophilic Efficiency (logP)” value is recorded as 2.95. For the same molecule, at GPR139, the “Averaged Max % Response (±St. Dev.)” value is 91.83 ± 43.39%. Besides, the EC50 on GPR139 (HEK-GPR139 cells) was determined as 840 nM. In the data set on parental HEK cells (HEK Agonist Activity section), the “Lipophilic Efficiency (logD)” value amounted to 1.73, the “Lipophilic Efficiency (logP)” value is reported as 1.73 and the “Averaged Max % Response (±St. Dev.)” value came out at 18.06 ± 8.45%. Besides, in the data set on parental HEK cells (setting [1]), the EC50 was more than 14100 nM.

Consider `O=C(NCCn1ccc2ccccc21)c1cccs1` [SR-01000124129], for which the figures for the “Averaged Max % Response (±St. Dev.)” value on GPR139 and with parental HEK cells (HEK Agonist Activity section) were 84.79 ± 6.25% and −9.08 ± 5.27%, respectively. For the same molecule, the “Lipophilic Efficiency (logD)” value stood at 3.83 at GPR139 (based on logD) and 1.77 in the data set with parental HEK cells (HEK Agonist Activity section). In addition, the “Lipophilic Efficiency (logP)” value on GPR139 (based on logP) is given as 3.83; in the data set with parental HEK cells (HEK Agonist Activity section) it was 1.77. Besides, the “Hill Slope” value on GPR139 (fitted dose-response curve) was 0.88. Also, at GPR139 (ligand efficiency), the “Efficiency Ligand” value is on record as 0.51. Also, the figures for the EC50 at GPR139 (setting [2]) and in the data set with parental HEK cells (setting [1]) were 123 nM and more than 14100 nM, respectively.

On to `CC1CCCC(NC(=O)CN2CCN(Cc3ccc(F)cc3Cl)C2=O)C1C` (centres unmarked) [SR-01000125648], for which, at GPR139, the “Efficiency Ligand” value was determined as 0.33, the “Hill Slope” value is 0.84, the “Lipophilic Efficiency (logD)” value turned out to be 3.13 and the “Lipophilic Efficiency (logP)” value turned out to be 3.13. Besides, the “Averaged Max % Response (±St. Dev.)” value at GPR139 worked out at 98.80 ± 20.98%. The EC50 at GPR139 (HEK-GPR139 cells) is 490 nM. Also, in the data set with parental HEK cells (HEK Agonist Activity section), the “Lipophilic Efficiency (logD)” value was 1.67, the “Lipophilic Efficiency (logP)” value came to 1.67 and the “Averaged Max % Response (±St. Dev.)” value is 8.17 ± 5.14%. Besides, the concentration for a half-maximal effect (EC50) with parental HEK cells (setting [1]) is more than 14100 nM.

For the molecule `Cc1cc(C)c2c(cnn2CC(=O)N2CCc3ccccc3C2)c1` [SR-01000154995], on GPR139, the “Efficiency Ligand” value was found to be 0.36, the “Hill Slope” value was determined as 1.08, the “Lipophilic Efficiency (logD)” value is given as 2.91 and the “Lipophilic Efficiency (logP)” value is recorded as 2.91. For the same molecule, the “Averaged Max % Response (±St. Dev.)” value at GPR139 is 88.51 ± 8.87%. Further, on GPR139 (HEK-GPR139 cells), the EC50 is 572 nM. Further, in the data set with parental HEK cells (HEK Agonist Activity section), the “Lipophilic Efficiency (logD)” value was 1.52, the “Lipophilic Efficiency (logP)” value was 1.52 and the “Averaged Max % Response (±St. Dev.)” value came out at 41.69 ± 44.54%. The EC50 in the data set on parental HEK cells (setting [3]) is more than 14100 nM.

For the molecule `COc1cc(OC)cc(-c2nnc(NC(=O)Cc3cccc4ccccc34)o2)c1` [SR-01000012205], the “Averaged Max % Response (±St. Dev.)” value on GPR139 stood at 109.87 ± 14.69%; with parental HEK cells (HEK Agonist Activity) it was 1.53 ± 2.99%. Further, the “Lipophilic Efficiency (logD)” value at GPR139 (based on logD) amounted to 4.06; in the data set on parental HEK cells (HEK Agonist Activity) it was 1.43. Moreover, the “Lipophilic Efficiency (logP)” value on GPR139 (based on logP) was determined as 4.05; with parental HEK cells (HEK Agonist Activity) it was 1.43. On GPR139 (fitted dose-response curve), the “Hill Slope” value amounted to 0.93. At GPR139 (ligand efficiency), the “Efficiency Ligand” value amounted to 0.36. Moreover, the EC50 was 34.4 nM on GPR139 (setting [2]) and more than 14500 nM with parental HEK cells (HEK Agonist Activity, parental non-transfected HEK cells).

Regarding `COc1ccc(C2=NN(CC(=O)NCCCN(C)c3ccccc3)C(=O)CC2)cc1` [SR-01000145949], the “Averaged Max % Response (±St. Dev.)” value at GPR139 worked out at 122.18 ± 22.07%; in the data set with parental HEK cells (HEK Agonist Activity), 2.57 ± 15.21%. For the same molecule, the “Lipophilic Efficiency (logD)” value at GPR139 (based on logD) worked out at 5.74; in the data set with parental HEK cells (HEK Agonist Activity), 2.92. Further, the “Lipophilic Efficiency (logP)” value came to 5.73 on GPR139 (based on logP) and 2.92 in the data set with parental HEK cells (HEK Agonist Activity). Further, the “Hill Slope” value on GPR139 (fitted dose-response curve) was 1.04. Besides, the “Efficiency Ligand” value at GPR139 (ligand efficiency) stood at 0.36. Also, the EC50 on GPR139 (setting [2]) was 21.5 nM; in the data set with parental HEK cells (setting [4]), more than 14100 nM.

As for `N[C@H](Cc1ccccc1Cl)c1nc2ccc(-c3ccncc3)cc2[nH]1.O=C(O)C(F)(F)F.O=C(O)C(F)(F)F` [SR-00000003277], at GPR139, the “Efficiency Ligand” value worked out at 0.34, the “Hill Slope” value was found to be 1.48, the “Lipophilic Efficiency (logD)” value amounted to 3.23 and the “Lipophilic Efficiency (logP)” value was determined as 2.32. The “Averaged Max % Response (±St. Dev.)” value at GPR139 is reported as 97.54 ± 11.30%. Further, the EC50 at GPR139 (HEK-GPR139 cells) was found to be 928 nM. Further, in the data set on parental HEK cells (HEK Agonist Activity section), the “Lipophilic Efficiency (logD)” value amounted to 2.04, the “Lipophilic Efficiency (logP)” value turned out to be 1.13 and the “Averaged Max % Response (±St. Dev.)” value is 29.67 ± 5.05%. For the same molecule, the EC50 in the data set on parental HEK cells (setting [3]) is more than 14100 nM.
